Test system: 898857-211-R-J1-PDC complex spheroids, growth % test/control
Experiment: Anticancer human tumor 898857-211-R-J1-PDC patient-derived melanoma cell line growth inhibition [RAS]
Conditions: for IC50: curve of first compound; for viability, T/C: stronger effect = lower value; active = viability on the fitted dose curve at most 10% of control; inactive = the rest
Summary of the method: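 Multi-cell-type spheroids: tumor cells plus HUVEC endothelial cells and mesenchymal stem cells. RAS-pathway inhibitors were combined with targeted agents, each dosed in half-log steps down from clinical Cmax, or from 10 microM when Cmax was unknown.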

[1] = second compound 0.00316 µM, first compound 0.0316 µM
[2] = second compound 0.00316 µM, first compound 0.1 µM
[3] = second compound 0.00316 µM, first compound 0.316 µM
[4] = second compound 0.00316 µM, first compound 1 µM
[5] = second compound 0.00316 µM, first compound 3.16 µM
[6] = second compound 0.00316 µM, first compound 10 µM
[7] = second compound 0.01 µM, first compound 0.0316 µM
[8] = second compound 0.01 µM, first compound 0.1 µM
[9] = second compound 0.01 µM, first compound 0.316 µM
[10] = second compound 0.01 µM, first compound 1 µM
[11] = second compound 0.01 µM, first compound 3.16 µM
[12] = second compound 0.01 µM, first compound 10 µM
[13] = second compound 0.0316 µM, first compound 0.0316 µM
[14] = second compound 0.0316 µM, first compound 0.1 µM
[15] = second compound 0.0316 µM, first compound 0.316 µM
[16] = second compound 0.0316 µM, first compound 1 µM
[17] = second compound 0.0316 µM, first compound 3.16 µM
[18] = second compound 0.0316 µM, first compound 10 µM
[19] = second compound 0.1 µM, first compound 0.0316 µM
[20] = second compound 0.1 µM, first compound 0.1 µM
[21] = second compound 0.1 µM, first compound 0.316 µM
[22] = second compound 0.1 µM, first compound 1 µM
[23] = second compound 0.1 µM, first compound 3.16 µM
[24] = second compound 0.1 µM, first compound 10 µM
[25] = second compound 0.316 µM, first compound 0.0316 µM
[26] = second compound 0.316 µM, first compound 0.1 µM
[27] = second compound 0.316 µM, first compound 0.316 µM
[28] = second compound 0.316 µM, first compound 1 µM
[29] = second compound 0.316 µM, first compound 3.16 µM
[30] = second compound 0.316 µM, first compound 10 µM
[31] = second compound 1 µM, first compound 0.0316 µM
[32] = second compound 1 µM, first compound 0.1 µM
[33] = second compound 1 µM, first compound 0.316 µM
[34] = second compound 1 µM, first compound 1 µM
[35] = second compound 1 µM, first compound 3.16 µM
[36] = second compound 1 µM, first compound 10 µM
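Note: spheroids exposed to compound for seven days before readout.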
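Throughout, for viability, T/C: 100% = DMSO vehicle control wells.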

CC(Nc1ccc2c(c1)OCCn1cc(N3C(=O)OCC3C(F)F)nc1-2)C(N)=O (stereo unspecified) + C=CC(=O)N1CCN(c2nc(OCC3CCCN3C)nc3c(F)c(-c4nc(N)cc(C)c4C(F)(F)F)c(Cl)cc23)C(C)C1
inactive: viability, T/C [1] 106% | viability, T/C [2] 91.2% | viability, T/C [3] 98.7% | viability, T/C [4] 93.9% | viability, T/C [5] 94.8% | viability, T/C [6] 72.8% | viability, T/C [7] 94.7% | viability, T/C [8] 103% | viability, T/C [9] 93.9% | viability, T/C [10] 87.6% | viability, T/C [11] 95.6% | viability, T/C [12] 71.4% | viability, T/C [13] 108% | viability, T/C [14] 103% | viability, T/C [15] 98.7% | viability, T/C [16] 91.9% | viability, T/C [17] 81.8% | viability, T/C [18] 75.7% | viability, T/C [19] 99.8% | viability, T/C [20] 105% | viability, T/C [21] 107% | viability, T/C [22] 99.1% | viability, T/C [23] 87.9% | viability, T/C [24] 74.5% | viability, T/C [25] 118% | viability, T/C [26] 120% | viability, T/C [27] 108% | viability, T/C [28] 97% | viability, T/C [29] 94.4% | viability, T/C [30] 70.1% | viability, T/C [31] 113% | viability, T/C [32] 124% | viability, T/C [33] 102% | viability, T/C [34] 111% | viability, T/C [35] 90.1% | viability, T/C [36] 71.4%
> 10 µM: IC50 (second compound 0.00316 µM) | IC50 (second compound 0.01 µM) | IC50 (second compound 0.0316 µM) | IC50 (second compound 0.1 µM) | IC50 (second compound 0.316 µM) | IC50 (second compound 1 µM)

C[C@@H](NC(=O)c1ncnc(N)c1Cl)c1ncc(C(=O)Nc2cc(C(F)(F)F)c(Cl)cn2)s1 + C=CC(=O)N1CCN(c2nc(OCC3CCCN3C)nc3c(F)c(-c4nc(N)cc(C)c4C(F)(F)F)c(Cl)cc23)C(C)C1
5.34 µM: IC50 (second compound 0.1 µM)
5.77 µM: IC50 (second compound 0.0316 µM)
inactive: viability, T/C [1] 127% | viability, T/C [2] 120% | viability, T/C [3] 111% | viability, T/C [4] 80.8% | viability, T/C [5] 63.6% | viability, T/C [6] 40% | viability, T/C [7] 124% | viability, T/C [8] 116% | viability, T/C [9] 103% | viability, T/C [10] 90.9% | viability, T/C [11] 68.5% | viability, T/C [12] 27.7% | viability, T/C [13] 130% | viability, T/C [14] 123% | viability, T/C [15] 112% | viability, T/C [16] 89.3% | viability, T/C [17] 71.2% | viability, T/C [18] 32.6% | viability, T/C [19] 124% | viability, T/C [20] 110% | viability, T/C [21] 118% | viability, T/C [22] 92.1% | viability, T/C [23] 61.7% | viability, T/C [24] 36.8% | viability, T/C [25] 123% | viability, T/C [26] 135% | viability, T/C [27] 114% | viability, T/C [28] 96.3% | viability, T/C [29] 70.8% | viability, T/C [30] 39.1% | viability, T/C [31] 132% | viability, T/C [32] 136% | viability, T/C [33] 111% | viability, T/C [34] 98.5% | viability, T/C [35] 57.5% | viability, T/C [36] 36.7%
5.85 µM: IC50 (second compound 0.00316 µM)
5.12 µM: IC50 (second compound 1 µM)
5.33 µM: IC50 (second compound 0.01 µM)
6.67 µM: IC50 (second compound 0.316 µM)

O=C(c1ccc(F)c(F)c1Nc1ccc(I)cc1F)N1CC(O)([C@@H]2CCCCN2)C1 + C=CC(=O)N1CCN(c2nc(OCC3CCCN3C)nc3c(F)c(-c4nc(N)cc(C)c4C(F)(F)F)c(Cl)cc23)C(C)C1
0.00871 µM: IC50 (second compound 1 µM)
0.00685 µM: IC50 (second compound 0.316 µM)
0.00343 µM: IC50 (second compound 0.01 µM)
0.00575 µM: IC50 (second compound 0.1 µM)
0.00518 µM: IC50 (second compound 0.00316 µM)
inactive: viability, T/C (second compound 0.00316 µM, first compound 0.00316 µM) 60.9% | viability, T/C (second compound 0.00316 µM, first compound 0.01 µM) 33.6% | viability, T/C [1] 28.4% | viability, T/C [2] 21.8% | viability, T/C [3] 18.9% | viability, T/C [4] 16.4% | viability, T/C (second compound 0.01 µM, first compound 0.00316 µM) 50.9% | viability, T/C (second compound 0.01 µM, first compound 0.01 µM) 38.3% | viability, T/C [7] 26.4% | viability, T/C [8] 19.6% | viability, T/C [9] 15.8% | viability, T/C [10] 16% | viability, T/C (second compound 0.0316 µM, first compound 0.00316 µM) 56.3% | viability, T/C (second compound 0.0316 µM, first compound 0.01 µM) 38% | viability, T/C [13] 23.6% | viability, T/C [14] 23.6% | viability, T/C [15] 19.1% | viability, T/C [16] 15.3% | viability, T/C (second compound 0.1 µM, first compound 0.00316 µM) 60.6% | viability, T/C (second compound 0.1 µM, first compound 0.01 µM) 39.7% | viability, T/C [19] 28% | viability, T/C [20] 21.5% | viability, T/C [21] 17.6% | viability, T/C [22] 14% | viability, T/C (second compound 0.316 µM, first compound 0.00316 µM) 58.1% | viability, T/C (second compound 0.316 µM, first compound 0.01 µM) 46.9% | viability, T/C [25] 33.4% | viability, T/C [26] 25.4% | viability, T/C [27] 19.1% | viability, T/C [28] 14.4% | viability, T/C (second compound 1 µM, first compound 0.00316 µM) 73.2% | viability, T/C (second compound 1 µM, first compound 0.01 µM) 40.8% | viability, T/C [31] 38.6% | viability, T/C [32] 23.5% | viability, T/C [33] 18.1% | viability, T/C [34] 14.5%
0.00461 µM: IC50 (second compound 0.0316 µM)
